Measured values taken from ChEMBL document CHEMBL1201862, “PubChem BioAssay data set” (2004).
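All cell lines were grown in 96-well plates and treated with compound for 48 hours. Abbreviation: GI50, concentration required for 50% inhibition of growth.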 The source made the active and inactive calls. Rule as the data show it: active = GI50 up to about 1.1 µM and inactive = higher.

Assays:
Test in all cases: DTP human tumour cell line panel, 48 h
[1] = tested on: MDA-MB-435
[2] = tested on: NCI-H23
[3] = tested on: SNB-19
[4] = tested on: A498
[5] = tested on: NCI-H226
[6] = tested on: IGROV-1
[7] = tested on: OVCAR-5
[8] = tested on: CCRF-CEM
[9] = tested on: SK-OV-3
[10] = tested on: SNB-75
[11] = tested on: DLD-1
[12] = tested on: UO-31
[13] = tested on: TK-10
[14] = tested on: RXF 393
[15] = tested on: OVCAR-3
[16] = tested on: SK-MEL-5
[17] = tested on: MCF7
[18] = tested on: 786-0
[19] = tested on: HOP-62
[20] = tested on: RPMI-8226
[21] = tested on: UACC-257
[22] = tested on: EKVX
[23] = tested on: SK-MEL-2
[24] = tested on: MOLT-4
[25] = tested on: CAKI-1
[26] = tested on: HCT-15
[27] = tested on: KM12
[28] = tested on: SF-539
[29] = tested on: HL-60
[30] = tested on: SK-MEL-28
[31] = tested on: HOP-18
[32] = tested on: SNB-78
[33] = tested on: NCI-H460
[34] = tested on: A549
[35] = tested on: SR
[36] = tested on: SF-295
[37] = tested on: PC-3
[38] = tested on: HOP-92
[39] = tested on: HT-29
[40] = tested on: UACC-62
[41] = tested on: SW-620
[42] = tested on: SN12C
[43] = tested on: U-251
[44] = tested on: COLO 205
[45] = tested on: M19-MEL
[46] = tested on: HCC 2998
[47] = tested on: K562
[48] = tested on: LXFL 529
[49] = tested on: DMS-114
[50] = tested on: DMS-273
[51] = tested on: KM-20L2
[52] = tested on: HCT-116
[53] = tested on: M14
[54] = tested on: XF498
[55] = tested on: SF-268
[56] = tested on: OVCAR-4
[57] = tested on: DU-145
[58] = tested on: ACHN
[59] = tested on: OVCAR-8
[60] = tested on: Malme-3M
[61] = tested on: LOX IMVI
[62] = tested on: NCI-H522
[63] = tested on: RXF 631

## COC1CC(C)C(OC)C2=CC(=O)C=C(NC(=O)/C(C)=C/C=C\C(C)C(OC(N)=O)/C(C)=C\C(C)C1OC)C2=O (configuration not stated)
[1]
  GI50: 72.1 nM (active)
[2]
  GI50: 0.447 µM (active)
[3]
  GI50: 0.495 µM (active)
[4]
  GI50: 11.7 µM (inactive)
[5]
  GI50: 6.15 µM (inactive)
[6]
  GI50: 2.97 µM (inactive)
[7]
  GI50: 3.2 µM (inactive)
[8]
  GI50: 117 nM (active)
[9]
  GI50: 0.357 µM (active)
[10]
  GI50: 0.762 µM (active)
[11]
  GI50: 0.804 µM (active)
[12]
  GI50: 4.83 µM (inactive)
[13]
  GI50: 2.09 µM (inactive)
[14]
  GI50: 0.337 µM (active)
[15]
  GI50: 0.313 µM (active)
[16]
  GI50: 0.804 µM (active)
[17]
  GI50: 62.1 nM (active)
[18]
  GI50: 0.902 µM (active)
[19]
  GI50: 1.48 µM (inactive)
[20]
  GI50: 0.313 µM (active)
[21]
  GI50: 0.261 µM (active)
[22]
  GI50: 11 µM (inactive)
[23]
  GI50: 0.525 µM (active)
[24]
  GI50: 0.0535 µM (active)
[25]
  GI50: 2.52 µM (inactive)
[26]
  GI50: 1330 nM
[27]
  GI50: 0.521 µM (active)
[28]
  GI50: 0.355 µM (active)
[29]
  GI50: 182 nM (active)
[30]
  GI50: 0.166 µM (active)
[31]
  GI50: 0.179 µM (active)
[32]
  GI50: 1.71 µM (inactive)
[33]
  GI50: 0.422 µM (active)
[34]
  GI50: 2.9 µM (inactive)
[35]
  GI50: 0.0682 µM (active)
[36]
  GI50: 1.07 µM (active)
[37]
  GI50: 11.5 µM (inactive)
[38]
  GI50: 0.313 µM (active)
[39]
  GI50: 0.244 µM (active)
[40]
  GI50: 0.492 µM (active)
[41]
  GI50: 0.0485 µM (active)
[42]
  GI50: 0.296 µM (active)
[43]
  GI50: 0.37 µM (active)
[44]
  GI50: 0.0414 µM (active)
[45]
  GI50: 441 nM (active)
[46]
  GI50: 0.665 µM (active)
[47]
  GI50: 114 nM (active)
[48]
  GI50: 0.191 µM (active)
[49]
  GI50: 0.403 µM (active)
[50]
  GI50: 0.239 µM (active)
[51]
  GI50: 202 nM (active)
[52]
  GI50: 0.313 µM (active)
[53]
  GI50: 589 nM (active)
[54]
  GI50: 681 nM (active)
[55]
  GI50: 1.31 µM (inactive)
[56]
  GI50: 834 nM (active)
[57]
  GI50: 643 nM (active)
[58]
  GI50: 1.25 µM (inactive)
[59]
  GI50: 1.67 µM (inactive)
[60]
  GI50: 0.334 µM (active)
[61]
  GI50: 379 nM (active)
[62]
  GI50: 90.8 nM (active)

## C=C1C(=O)O[C@@H]2[C@H]1CCC(C)=C1C=CC(=O)[C@]12C
[2]
  GI50: > 10 µM (inactive)
[3]
  GI50: 23.7 µM (inactive)
[5]
  GI50: 22.9 µM (inactive)
[6]
  GI50: 21.8 µM (inactive)
[7]
  GI50: 17.9 µM (inactive)
[8]
  GI50: 3150 nM (inactive)
[9]
  GI50: 27.2 µM (inactive)
[10]
  GI50: 18.9 µM (inactive)
[11]
  GI50: 14.9 µM (inactive)
[12]
  GI50: 14.9 µM (inactive)
[13]
  GI50: 23 µM (inactive)
[14]
  GI50: 14.4 µM (inactive)
[15]
  GI50: 16.7 µM (inactive)
[16]
  GI50: 13.9 µM (inactive)
[63]
  GI50: 11.3 µM (inactive)
[18]
  GI50: > 10 µM (inactive)
[20]
  GI50: 6.67 µM (inactive)
[21]
  GI50: 12.4 µM (inactive)
[22]
  GI50: 17 µM (inactive)
[23]
  GI50: 20.7 µM (inactive)
[24]
  GI50: 10.9 µM (inactive)
[25]
  GI50: 15.1 µM (inactive)
[27]
  GI50: 12.4 µM (inactive)
[28]
  GI50: 15.5 µM (inactive)
[29]
  GI50: 3300 nM (inactive)
[30]
  GI50: 11.1 µM (inactive)
[31]
  GI50: 15.9 µM (inactive)
[32]
  GI50: 4.61 µM (inactive)
[33]
  GI50: 19.4 µM (inactive)
[34]
  GI50: 23.6 µM (inactive)
[35]
  GI50: 13.6 µM (inactive)
[36]
  GI50: 17 µM (inactive)
[38]
  GI50: 6.22 µM (inactive)
[39]
  GI50: 10.9 µM (inactive)
[40]
  GI50: 10.3 µM (inactive)
[41]
  GI50: 6.21 µM (inactive)
[42]
  GI50: 12.6 µM (inactive)
[43]
  GI50: 22.4 µM (inactive)
[44]
  GI50: 8.36 µM (inactive)
[46]
  GI50: 13.2 µM (inactive)
[47]
  GI50: 4490 nM (inactive)
[48]
  GI50: 13.8 µM (inactive)
[49]
  GI50: 14.3 µM (inactive)
[50]
  GI50: 17.3 µM (inactive)
[52]
  GI50: 12.2 µM (inactive)
[55]
  GI50: 23.9 µM (inactive)
[58]
  GI50: 16.1 µM (inactive)
[59]
  GI50: 17.3 µM (inactive)
[60]
  GI50: > 10 µM (inactive)
[62]
  GI50: 2420 nM (inactive)
